Test results as given in PubChem BioAssay (NCI).
Several values for one entry are separate records, joined by “and”; a condition that tells them apart may be missing. Identical values can stand only once.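 Briefly, cells in 96-well plates were exposed to five compound concentrations for 48 h, and endpoints were estimated by linear interpolation. GI50 = concentration required for 50% inhibition of growth. At the TGI there is no net growth.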

Tests used:
Assay in all cases: growth of human tumour cells (NCI), 48 h
[1] = system: SF-295 CNS
[2] = system: HOP-62 NSCLC
[3] = system: NCI-H23 lung
[4] = system: NCI-H460 lung
[5] = system: EKVX NSCLC
[6] = system: NCI/ADR-RES ovarian
[7] = system: HCC-2998 colon

| SMILES | GI50 [1] | TGI [1] | GI50 [2] | TGI [2] | GI50 [3] | TGI [3] | GI50 [4] | TGI [4] | GI50 [5] | TGI [5] | GI50 [6] | TGI [6] | GI50 [7] | TGI [7] |
| --- | --- | --- | --- | --- | --- | --- | --- | --- | --- | --- | --- | --- | --- | --- |
| COc1ccc2c(c1)/C(=C\c1c(-c3ccccc3)nc3sccn13)C(=O)N2 | 0.268 µM | 0.967 µM | 2.42 µM | 14.9 µM | 1.97 µM | 6.85 µM | 7.08 µM | > 24.4 µM | 12.1 µM | > 43.6 µM | 1.09 µM | 3.27 µM | – | – |
| C[C@]1(c2nc3c(C(N)=O)cccc3[nH]2)CCCN1 | 56.1 µM and > 58.3 µM | > 100 µM | > 100 µM | > 100 µM | > 100 µM | > 100 µM | 35.5 µM and 48.6 µM | > 100 µM | > 100 µM | > 100 µM | > 100 µM | > 100 µM | > 100 µM | > 100 µM |
| Cc1ccc(S(=O)(=O)NC(Cc2ccccc2)C(=O)CCl)cc1 (configuration not stated) | – | 36.6 µM | – | 31 µM | – | 26.8 µM | – | 29.3 µM | – | 34.4 µM | – | 62.9 µM | – | 26.9 µM |
| O=C(Nc1ccc(Cl)cc1)c1cc(NCc2cc(O)ccc2O)ccc1O | 15.4 µM | 36.3 µM | 22 µM | 51.7 µM | 11.8 µM | 31.4 µM | 13.3 µM | 33.2 µM | 5.5 µM | 23.7 µM | 4.43 µM | 62.9 µM | 7.7 µM | 21.4 µM |
| COc1nc2c(c(=O)n1C)CN(c1ccccc1)C(=O)CN2C | 52.6 µM | > 100 µM | > 100 µM | > 100 µM | 95.1 µM | > 100 µM | 60.2 µM | > 100 µM | 19.9 µM | > 100 µM | 72.2 µM | > 100 µM | > 100 µM | > 100 µM |
| O=C(O)c1nn(-c2ccc(Cl)cc2)c2c1C(=O)c1ccccc1C2=O | – | > 100 µM | – | > 100 µM | – | > 100 µM | – | > 100 µM | – | > 100 µM | – | > 100 µM | – | > 100 µM |
| NC(CCl)=NCC12CC3CC(CC(C3)C1)C2 | 2.29 µM | 16.2 µM | 0.796 µM | 11.4 µM | 0.678 µM | 4.17 µM | 0.44 µM | 4.6 µM | 2.23 µM | 21.1 µM | 0.625 µM | 14.4 µM | 1.65 µM | 7.84 µM |
| CC[C@H](C)[C@H](NC(=O)c1ncccn1)C(=O)N(C)[C@H](C[C@@H](OC(C)=O)c1nc(C(=O)N[C@@H](Cc2ccccc2)C[C@H](C)C(=O)OC)cs1)C(C)C | 2.11 µM | 16.7 µM | 1.73 µM | > 25 µM | 5.4 µM | > 25 µM | 0.925 µM | > 25 µM | 4.62 µM | > 25 µM | 11.7 µM | > 25 µM | 6.48 µM | > 25 µM |
| O=C(N/N=C/c1ccc([N+](=O)[O-])cc1)c1ccccc1Nc1ccnc(C(F)(F)F)c1 | 11.2 µM | 32.4 µM | 31.2 µM | 95.1 µM | 9.47 µM | > 100 µM | 21.3 µM | 52.9 µM | 14.6 µM | 59.5 µM | 16.8 µM | 58.7 µM | 17.9 µM | 49.5 µM |
| Cn1cc(-c2ncnc3ccc(-c4cnc(Cl)c(NS(C)(=O)=O)c4)cc23)c2ccccc21 | 0.298 µM | 3.82 µM | 0.791 µM | > 22.6 µM | 0.903 µM | > 52 µM | 0.365 µM | > 100 µM | 0.598 µM | – | 1.24 µM | 30.3 µM | 0.812 µM | 13.3 µM |
| COc1cc(/C=C/C(=O)c2ccccc2O)ccc1OCCCOc1cc2c(cc1OC)C(=O)N1CCC[C@H]1C=N2 | 0.0281 µM | 0.0895 µM | 0.0392 µM | 13.1 µM | 0.0363 µM | 0.151 µM | 0.0511 µM | 11.1 µM | 0.215 µM | 0.955 µM | 0.345 µM | 16.8 µM | 0.138 µM | 0.433 µM |
| COc1ccc(-c2oc3ncnc(N)c3c2-c2ccc(NC(=O)Nc3cc(C(F)(F)F)ccc3F)cc2)cc1 | 1.88 µM | 7.47 µM | 0.953 µM | 3.38 µM | 0.823 µM | 3.26 µM | 0.85 µM | 2.97 µM | 1.59 µM | 9.74 µM | 1.17 µM | 6.24 µM | 2.08 µM | 5.81 µM |
| O=c1cc(-c2ccccc2)oc2c(O)c(O)ccc12 | 7.8 µM | > 100 µM | 7.08 µM | > 100 µM | 6.27 µM | > 100 µM | 4.44 µM | > 100 µM | 18.4 µM | > 100 µM | 4.04 µM | 67.5 µM | 23.8 µM | > 100 µM |
| N#Cc1c(N)c(C(=O)c2ccc3c(c2)OCCO3)n2c1CCCC2 | 2.69 µM | > 53.4 µM | 3.48 µM | > 100 µM | 4.64 µM | > 100 µM | 3.19 µM | > 100 µM | – | – | 1.12 µM | > 52.5 µM | 4.1 µM | > 93.1 µM |
| Cc1cc(C)c([I+]c2c(C)cc(C)cc2C)c(C)c1 | 0.591 µM | 2.18 µM | 0.841 µM | 2.16 µM | 0.334 µM | 1.83 µM | 0.846 µM | 2.3 µM | – | – | 6.54 µM | 26.8 µM | 0.415 µM | 1.73 µM |
| O=C1/C(=C/c2ccc(Cl)cc2)N=C(c2ccccc2)N1c1cc(C(F)(F)F)ccc1Cl | 17.2 µM | 48.8 µM | 15 µM | 42.8 µM | 34.4 µM | > 100 µM | 19.4 µM | 61.7 µM | 21.9 µM | > 100 µM | 22.3 µM | 77.6 µM | 27.5 µM | 87 µM |
| CCCCCCCCCCCCCCCCCC1=NC(C)(C)CN1C(C)(C)CO | – | – | 1.72 µM | 3.19 µM | 1.52 µM | 2.99 µM | 1.31 µM | 2.8 µM | 2.21 µM | 14 µM | – | – | 1.2 µM | 2.5 µM |
| N#Cc1ccc2[nH]cc(Cc3c[nH]c4ccc(C#N)cc34)c2c1 | 8.84 µM | 22.4 µM | 11.6 µM | 28.5 µM | 15.2 µM | 35.4 µM | 9.16 µM | 23.5 µM | 14.9 µM | > 50 µM | 12.5 µM | 36.3 µM | 9.77 µM | 18.6 µM |
